Assay results published in article PMC2993773 (Journal of natural products, 2010).

Assays:
[1] = system: KB-VIN multidrug-resistant human cancer cell line; assay: In vitro cytotoxicity; format: cell-based
[2] = system: P-388 murine leukemia cells; conditions: in vitro; cited from earlier work
[3] = system: KB nasopharyngeal human cancer cell line; assay: In vitro cytotoxicity; format: cell-based; conditions: KB cells (value in parentheses)

Compound: C=C(CC[C@@H](C)[C@H]1CC[C@@]2(O)C3=C(C(=O)C[C@]12C)[C@@]1(C)CCC(=O)[C@@H](C)C1C[C@@H]3O)C(C)C(=O)O (stereo partly drawn) [Compound 4, 7β,14α-dihydroxy-3,11-dioxo-4α-methylergosta-8,24(28)-dien-26-oic acid]
- substrate of P-glycoprotein (P-gp) ([1]; not told): not substrates of P-glycoprotein

Compound: C=C(CC[C@@H](C)[C@H]1CC[C@H]2C3=C(C(=O)C[C@]12C)[C@@]1(C)CCC(=O)[C@@H](C)[C@@H]1C[C@@H]3O)C(C)C(=O)OC (stereo partly drawn) [Compound 6, methyl 7β-hydroxy-3,11-dioxo-4α-methylergosta-8,24(28)-dien-26-oate]
- substrate of P-glycoprotein (P-gp) ([1]; inferred from lack of cross-resistance shown by KB-VIN): not substrates of P-glycoprotein

Compound: C=C(CC[C@@H](C)[C@H]1CC[C@H]2C3=C(C(=O)C[C@]12C)[C@@]1(C)CCC(=O)[C@@H](C)[C@@H]1CC3=O)C(C)C(=O)O (stereo partly shown) [Compound 11, zhankuic acid A]
- cytotoxicity against P-388 murine leukemia cells [2]: significant cytotoxicity

Compound: C=C(CC[C@@H](C)[C@H]1CC[C@H]2C3=C(C(=O)[C@H](O)[C@]12C)[C@@]1(C)CC[C@@H](O)[C@@H](C)[C@@H]1CC3=O)C(C)C(=O)O (stereo partly shown) [Compound 13, zhankuic acid C]
- cytotoxicity against P-388 murine leukemia cells [2]: significant cytotoxicity

Compound: COc1cc([C@@H]2c3cc4c(cc3[C@@H](O[C@@H]3O[C@@H]5CO[C@@H](C)O[C@H]5[C@H](O)[C@H]3O)[C@H]3COC(=O)[C@H]23)OCO4)cc(OC)c1O [etoposide, reference compound]
- activity in KB-VIN relative to KB (cross-resistance) ([1]; KB-VIN versus KB): at least eight-fold less active

Compound: eburicol [Compound 19]
- % inhibition at 20 μM, KB-VIN ([1]; 20 μM, KB-VIN cells (value in parentheses)): 18%
- % inhibition at 20 μM, KB [3]: 34%
